Test results taken from patent US20160046618A1, “Cyclopropyl Fused Thiazin-2-Amine Compounds as Beta-Secretase Inhibitors and Methods of Use” (AMGEN INC., priority 2014, published 2016).

Key:
human recombinant BACE2 = human recombinant BACE2 (Homo sapiens (Human), UniProt Q9Y5Z0); assay: In vitro enzymatic BACE2 FRET assay; format: biochemical; settings: read-out: IC50 IP (μM) BACE2 enzyme
Outline: (§1)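 Reactions were initiated by adding 50 nM of a peptide carrying fluorophore and quencher on opposite sides of the cleavage site and ran for one hour. Tris buffer then brought the pH to neutrality, ending the reaction, and fluorescence was measured (488 nm excitation, 590 nm emission).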

human recombinant BACE1 = human recombinant BACE1 (Homo sapiens (Human), UniProt P56817); assay: In vitro enzymatic BACE1 FRET assay; format: biochemical; settings: read-out: IC50 IP (μM) BACE1 enzyme
Outline: as §1

Recombinant Cat D = Recombinant Cat D (Homo sapiens (Human), UniProt P07339); assay: In vitro enzymatic Cathepsin D (Cat D) FRET assay; format: biochemical; settings: read-out: IC50 IP (μM) CatD
Outline: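 CHO-expressed enzyme; buffer 0.05 M citrate pH 3.5, 5 mM CHAPS, 10% DMSO final. Start with FRET substrate 20 nM, 1 h incubation, Tris stop (pH to neutral), fluorescence ex 500 nm/em 580 nm.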

[1] = system: Aβ40 in conditioned medium of cells stably expressing Amyloid Precursor Protein (APP); assay: In vitro BACE-1 cell-based assay (Aβ40 sandwich ELISA); settings: read-out: IC50 IP (μM) BACE1 cell
Outline: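 Aβ40 in supernatants measured by time-resolved fluorescence sandwich ELISA, with pAb40 as capture and biotin-6E10 as detector antibody, each incubated at 4 °C.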

Sequence of human recombinant BACE1 (P56817 46-501): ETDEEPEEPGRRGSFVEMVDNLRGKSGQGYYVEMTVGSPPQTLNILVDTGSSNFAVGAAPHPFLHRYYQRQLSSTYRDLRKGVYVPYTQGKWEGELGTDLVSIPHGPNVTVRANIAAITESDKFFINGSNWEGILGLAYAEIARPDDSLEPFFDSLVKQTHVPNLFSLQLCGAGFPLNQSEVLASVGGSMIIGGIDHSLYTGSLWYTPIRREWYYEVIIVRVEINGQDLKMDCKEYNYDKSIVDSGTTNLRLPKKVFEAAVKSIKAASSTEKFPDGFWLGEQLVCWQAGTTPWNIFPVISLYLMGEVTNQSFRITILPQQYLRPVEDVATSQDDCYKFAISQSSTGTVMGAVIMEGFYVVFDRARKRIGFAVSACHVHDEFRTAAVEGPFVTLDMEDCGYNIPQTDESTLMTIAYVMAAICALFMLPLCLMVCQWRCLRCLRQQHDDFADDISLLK
Sequence of human recombinant BACE2 (Q9Y5Z0 63-518): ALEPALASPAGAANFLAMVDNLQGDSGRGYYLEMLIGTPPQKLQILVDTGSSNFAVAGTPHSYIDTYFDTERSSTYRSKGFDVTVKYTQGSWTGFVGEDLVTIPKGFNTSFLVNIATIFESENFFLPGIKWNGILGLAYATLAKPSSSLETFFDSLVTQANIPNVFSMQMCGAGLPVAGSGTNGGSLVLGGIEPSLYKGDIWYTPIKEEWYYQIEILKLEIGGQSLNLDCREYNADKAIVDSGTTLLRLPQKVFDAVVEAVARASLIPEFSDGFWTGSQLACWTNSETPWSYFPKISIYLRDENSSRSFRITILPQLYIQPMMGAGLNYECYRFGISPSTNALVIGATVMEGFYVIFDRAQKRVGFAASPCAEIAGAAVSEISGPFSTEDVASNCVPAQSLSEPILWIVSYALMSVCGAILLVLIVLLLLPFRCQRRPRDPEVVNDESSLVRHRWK
Sequence of Recombinant Cat D (P07339 65-412): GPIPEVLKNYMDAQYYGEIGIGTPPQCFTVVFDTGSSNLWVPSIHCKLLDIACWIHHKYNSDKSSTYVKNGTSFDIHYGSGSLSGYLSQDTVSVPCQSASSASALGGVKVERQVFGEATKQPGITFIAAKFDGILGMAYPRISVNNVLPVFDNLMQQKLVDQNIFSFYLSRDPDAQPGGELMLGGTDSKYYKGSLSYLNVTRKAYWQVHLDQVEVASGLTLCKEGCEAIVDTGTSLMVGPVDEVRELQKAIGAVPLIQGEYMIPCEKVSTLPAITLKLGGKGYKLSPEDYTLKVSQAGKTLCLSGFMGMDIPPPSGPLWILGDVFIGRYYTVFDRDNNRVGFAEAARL

| SMILES | IC50 (human recombinant BACE2) [µM] | IC50 (human recombinant BACE1) [µM] | IC50 (Recombinant Cat D) [µM] | IC50 [1] [µM] |
| --- | --- | --- | --- | --- |
| C#CCOc1cnc(C(=O)Nc2cc(F)c(F)c([C@@]3(C)N=C(N)S[C@@]4(C(=O)NC)C[C@H]43)c2)cn1 [Example 914, (1S,5S,6S)-3-amino-5-(2,3-difluoro-5-(((5-(2-propyn-1-yloxy)-2-pyrazinyl)carbonyl)amino)phenyl)-N,5-dimethyl-2-thia-4-azabicyclo[4.1.0]hept-3-ene-1-carboxamide] | 0.0108 | 0.000464 | 79.4 | 0.000534 |
| C#CCOc1cnc2c(Nc3cc(F)c(F)c([C@@]4(C)N=C(N)S[C@@]5(C#N)C[C@H]54)c3)nccc2n1 [Example 916, (1S,5S,6S)-3-amino-5-(2,3-difluoro-5-((2-(2-propyn-1-yloxy)pyrido[3,4-b]pyrazin-5-yl)amino)phenyl)-5-methyl-2-thia-4-azabicyclo[4.1.0]hept-3-ene-1-carbonitrile] | 0.00399 | 0.000515 | 84.2 | 0.00974 |
| C#CCOc1cnc2c(Nc3cc(F)c(F)c([C@@]4(C)N=C(N)S[C@@]5(C(N)=O)C[C@H]54)c3)ncnc2c1 [Example 917, (1S,5S,6S)-3-amino-5-(2,3-difluoro-5-((7-(2-propyn-1-yloxy)pyrido[3,2-d]pyrimidin-4-yl)amino)phenyl)-5-methyl-2-thia-4-azabicyclo[4.1.0]hept-3-ene-1-carboxamide] | 0.0355 | 0.000633 | 373 | 0.000857 |
| C[C@]1(c2cc(Nc3ncnc4cc(OCc5ncco5)cnc34)cc(F)c2F)N=C(N)S[C@@]2(C(N)=O)C[C@H]21 [Example 918, (1S,5S,6S)-3-amino-5-(2,3-difluoro-5-((7-(1,3-oxazol-2-ylmethoxy)pyrido[3,2-d]pyrimidin-4-yl)amino)phenyl)-5-methyl-2-thia-4-azabicyclo[4.1.0]hept-3-ene-1-carboxamide] | 0.0389 | 0.000861 | 86.9 | 0.000733 |
| C#CCOc1cnc(C(=O)Nc2cc(F)c(F)c([C@@]3(C)N=C(N)S[C@@]4(C(N)=O)C[C@H]43)c2)cn1 [Example 919, (1S,5S,6S)-3-amino-5-(2,3-difluoro-5-(((5-(2-propyn-1-yloxy)-2-pyrazinyl)carbonyl)amino)phenyl)-5-methyl-2-thia-4-azabicyclo[4.1.0]hept-3-ene-1-carboxamide] | 0.00428 | 0.000199 | 21.2 | 0.000298 |
| CC#CCOc1cnc2c(Nc3cc(F)c(F)c([C@@]4(C)N=C(N)S[C@@]5(C(N)=O)C[C@H]54)c3)nccc2n1 [Example 920, (1S,5S,6S)-3-amino-5-(5-((2-(2-butyn-1-yloxy)pyrido[3,4-b]pyrazin-5-yl)amino)-2,3-difluorophenyl)-5-methyl-2-thia-4-azabicyclo[4.1.0]hept-3-ene-1-carboxamide] | 0.00604 | 0.000201 | 1080 | 0.000644 |
| CN(C)C(=O)[C@]12C[C@H]1[C@@](C)(c1cc(NC(=O)c3cnc(OCC(F)(F)C(F)F)cn3)cc(F)c1F)N=C(N)S2 [Example 922, (1S,5S,6S)-3-amino-5-(2,3-difluoro-5-(((5-(2,2,3,3-tetrafluoropropoxy)-2-pyrazinyl)carbonyl)amino)phenyl)-N,N,5-trimethyl-2-thia-4-azabicyclo[4.1.0]hept-3-ene-1-carboxamide] | 0.00839 | 0.00155 | 1090 | 0.00155 |
| CN(C)C(=O)[C@]12C[C@H]1[C@@](C)(c1cc(Nc3ncnc4cc(OCc5ncco5)cnc34)cc(F)c1F)N=C(N)S2 [Example 923, (1S,5S,6S)-3-amino-5-(2,3-difluoro-5-((7-(1,3-oxazol-2-ylmethoxy)pyrido[3,2-d]pyrimidin-4-yl)amino)phenyl)-N,N,5-trimethyl-2-thia-4-azabicyclo[4.1.0]hept-3-ene-1-carboxamide] | 0.00253 | 0.000863 | 121 | 0.000338 |
| C#C[C@H](C)Oc1cnc2c(Nc3cc(F)c(F)c([C@@]4(C)N=C(N)S[C@@]5(C(=O)N(C)C)C[C@H]54)c3)nccc2n1 [Example 925, (1S,5S,6S)-3-amino-5-(2,3-difluoro-5-((2-(((1S)-1-methyl-2-propyn-1-yl)oxy)pyrido[3,4-b]pyrazin-5-yl)amino)phenyl)-N,N,5-trimethyl-2-thia-4-azabicyclo[4.1.0]hept-3-ene-1-carboxamide] | 0.00387 | 0.0014 | > 400 | 0.00308 |
| CN(C)C(=O)[C@]12C[C@H]1[C@@](C)(c1cc(NC(=O)c3cnc(OCC(F)(F)F)cn3)cc(F)c1F)N=C(N)S2 [Example 926, (1S,5S,6S)-3-amino-5-(2,3-difluoro-5-(((5-(2,2,2-trifluoroethoxy)-2-pyrazinyl)carbonyl)amino)phenyl)-N,N,5-trimethyl-2-thia-4-azabicyclo[4.1.0]hept-3-ene-1-carboxamide] | 0.00491 | 0.0021 | 695 | 0.00113 |
| C#CCOc1cnc(C(=O)Nc2ccc(F)c([C@@]3(C)N=C(N)S[C@@]4(C#N)C[C@H]43)c2)cn1 [Example 927, N-(3-((1S,5S,6S)-3-amino-1-cyano-5-methyl-2-thia-4-azabicyclo[4.1.0]hept-3-en-5-yl)-4-fluorophenyl)-5-(2-propyn-1-yloxy)-2-pyrazinecarboxamide] | 0.00448 | 0.000266 | 126 | 0.000667 |
| C#CCOc1cnc2c(Nc3ccc(F)c([C@@]4(C)N=C(N)S[C@@]5(C#N)C[C@H]54)c3)ncnc2c1 [Example 928, (1S,5S,6S)-3-amino-5-(2-fluoro-5-((7-(2-propyn-1-yloxy)pyrido[3,2-d]pyrimidin-4-yl)amino)phenyl)-5-methyl-2-thia-4-azabicyclo[4.1.0]hept-3-ene-1-carbonitrile] | 0.0129 | 0.00141 | 439 | 0.00723 |
| C[C@]1(c2cc(NC(=O)c3ccc(Cl)cn3)ccc2F)N=C(N)S[C@@]2(C#N)C[C@H]21 [Example 929, N-(3-((1S,5S,6S)-3-amino-1-cyano-5-methyl-2-thia-4-azabicyclo[4.1.0]hept-3-en-5-yl)-4-fluorophenyl)-5-chloro 2-pyridinecarboxamide] | < 0.00203 | 0.000567 | > 400 | 0.00363 |
| C#CCOc1cnc2c(Nc3cc(F)c(F)c([C@@]4(C)N=C(N)S[C@@]5(C(=O)N6CCCC6)C[C@H]54)c3)ncnc2c1 [Example 933, N-(3-((1S,5S,6S)-3-amino-5-methyl-1-(1-pyrrolidinylcarbonyl)-2-thia-4-azabicyclo[4.1.0]hept-3-en-5-yl)-4,5-difluorophenyl)-7-(2-propyn-1-yloxy)pyrido[3,2-d]pyrimidin-4-amine] | 0.00491 | 0.000526 | 315 | 0.000709 |
| C#CCOc1cnc(C(=O)Nc2cc(F)c(F)c([C@@]3(C)N=C(N)S[C@@]4(C(=O)N5CCCC5)C[C@H]43)c2)cn1 [Example 934, N-(3-((1S,5S,6S)-3-amino-5-methyl-1-(1-pyrrolidinylcarbonyl)-2-thia-4-azabicyclo[4.1.0]hept-3-en-5-yl)-4,5-difluorophenyl)-5-(2-propyn-1-yloxy)-2-pyrazinecarboxamide] | < 0.00203 | 0.000393 | 12.9 | 0.000378 |
| C[C@]1(c2cc(NC(=O)c3ccc(Cl)cn3)cc(F)c2F)N=C(N)S[C@@]2(C(=O)N3CCCC3)C[C@H]21 [Example 935, N-(3-((1S,5S,6S)-3-amino-5-methyl-1-(1-pyrrolidinylcarbonyl)-2-thia-4-azabicyclo[4.1.0]hept-3-en-5-yl)-4,5-difluorophenyl)-5-chloro-2-pyridinecarboxamide] | < 0.00203 | 0.000498 | 254 | 0.000889 |
| C[C@]1(c2cc(Nc3ncnc4cc(OCc5ncco5)cnc34)cc(F)c2F)N=C(N)S[C@@]2(C(=O)N3CCCC3)C[C@H]21 [Example 936, N-(3-((1S,5S,6S)-3-amino-5-methyl-1-(1-pyrrolidinylcarbonyl)-2-thia-4-azabicyclo[4.1.0]hept-3-en-5-yl)-4,5-difluorophenyl)-7-(1,3-oxazol-2-ylmethoxy)pyrido[3,2-d]pyrimidin-4-amine] | 0.0182 | 0.00385 | 115 | 0.000847 |
| C#C[C@H](C)Oc1cnc2c(Nc3cc(F)c(F)c([C@@]4(C)N=C(N)S[C@@]5(C(=O)N6CCCC6)C[C@H]54)c3)nccc2n1 [Example 937, N-(3-((1S,5S,6S)-3-amino-5-methyl-1-(1-pyrrolidinylcarbonyl)-2-thia-4-azabicyclo[4.1.0]hept-3-en-5-yl)-4,5-difluorophenyl)-2-(((1S)-1-methyl-2-propyn-1-yl)oxy)pyrido[3,4-b]pyrazin-5-amine] | 0.0102 | 0.00207 | 872 | 0.00624 |
